System: goblet cells
Test: Goblet cell density in eye tissue of scopolamine-treated rats (dry eye model), PAS-stained thin sections, blinded grader ratings
Format: in vivo, Sprague-Dawley male rats
Procedure: Sprague-Dawley male rats (7 weeks old, average weight=444 g) were treated with subcutaneous (SC) scopolamine hydrobromide in normal saline (n=30, 25 mg/kg injected 3× per day) or nothing (n=4). Scopolamine treated animals received either (a) 50 mM meglumine in the drinking water (n=10), (b) a 3× daily eyemist containing 2% by weight of meglumine hydrochloride (n=10) or (c) a 3× daily eyemist of normal saline (n=10). Treatment was for 4.5 weeks. One animal receiving scopolamine and the meglumine eyemist died just prior to the end of the study, and the eye tissues were not analyzed. Animals were euthanized and the eye orbit and surrounding tissue from both eyes were removed and placed in formalin. Tissues were embedded in paraffin, thin sections prepared, and stained with periodic acid Schiff to more easily visualize the goblet cells.
Animals not treated with scopolamine or with scopolamine and a saline eyemist had the lowest levels of goblet cells. […] The difference in goblet cell density between the untreated animals and those treated with oral meglumine was significant for one grader (p=0.04) and approached significance for the other (p=0.07). The meglumine eye mist referred to in Table 1 was obtained from Piedmont Chemical Industries (High Point, N.C.).

CNC[C@H](O)[C@@H](O)[C@H](O)[C@H](O)CO [oral meg, meglumine]
extent of regions containing goblet cells (FIG. 1) (scopolamine-dosed rats, oral meglumine versus saline eyemist): more extensive regions containing goblet cells
levels of goblet cells compared with the other groups (in words) (scopolamine-treated rats, 50 mM meglumine in the drinking water, 4.5 weeks): highest levels of goblet cells

Source: US9861593B2, “Method for treating or preventing dry eye disorders using alkylamino-polyhydroxyalkanes” (Dynamis Pharmaceuticals, Inc., priority 2008, dated 2018)
